Data from patent publication US8901307B2, “Chemical compounds 251” (AstraZeneca AB, priority 2008, dated 2014).
Where a name gives a salt, the structure may show the parent alone.

Experiments:
human His-PIM1 [2-313] = biological target: T1, human His-PIM1 [2-313] (Homo sapiens, UniProt P11309); assay: PIM1 in-vitro mobility shift assay (Caliper LC3000, FL-Ahx-Bad phosphorylation); assay type: biochemical; details: 1.5 h; percent inhibition at 0.3 uM compound; read-out: PIM1 % I at 0.3 uM
T1 construct: purified human His-PIM1 [2-313] enzyme; His (N); purchased University of Dundee, Scotland; host or cells: baculovirus system
T1 sequence (P11309 2-313): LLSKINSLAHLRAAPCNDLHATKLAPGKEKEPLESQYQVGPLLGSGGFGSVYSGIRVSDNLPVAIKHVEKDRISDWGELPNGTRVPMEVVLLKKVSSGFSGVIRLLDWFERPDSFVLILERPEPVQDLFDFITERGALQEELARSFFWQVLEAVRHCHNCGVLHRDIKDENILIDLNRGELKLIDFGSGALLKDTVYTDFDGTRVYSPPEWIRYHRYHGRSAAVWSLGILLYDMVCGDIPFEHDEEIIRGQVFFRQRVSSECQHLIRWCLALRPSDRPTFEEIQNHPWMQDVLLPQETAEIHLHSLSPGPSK
Source text: PIM1 In-Vitro Mobility Shift Assay
(§1) One may determine the activity of purified human His-PIM1 [2-313] enzyme in-vitro using a mobility shift assay on a Caliper LC3000 reader (Caliper, Mass.), which measures fluorescence of a phosphorylated and unphosphorylated FL-Ahx-Bad (FITC-(AHX)RSRHSSYPAGT-COOH, Primm 200606-00289, Primm Biotech, Mass.) and calculates a ratiometric value to determine percent turnover. One may express PIM1 (University of Dundee, Scotland) in baculovirus system with a typical yield of >85% purity.
(§2) One determines phosphorylation of the FL-Ahx-Bad in the presence and absence of the compound of interest. One preincubates 5 µl of Enzyme/Substrate/adenosine triphosphate (ATP) mix consisting of 2.4 nM PIM1, 3.6 uM FL-Ahx-Bad, and 240 uM ATP in 1.2× buffer with 2 ul of compound for 20 minutes at 25° C. One initiates reactions with 5 ul of Metal mix consisting of 24 mM MgCl2 in 1.2× buffer and incubated at 25° C. for 90 minutes and stops the reactions by addition of 5 ul of Stop mix consisting of 100 mM HEPES, 121 mM ethylenediamine tetraacetic acid, 0.8% Coatin Reagent 3 (Caliper, Mass.), and 0.01% Tween. One detects phosphorylated and unphosphorylated substrate by a Caliper LC3000 reader (Caliper, Mass.) in the presence of separation buffer consisting of 100 mM HEPES, 16 mM ethylenediamine tetraacetic acid, 0.1% Coatin Reagent 3 (Caliper, Mass.), 0.015% Brij-35, 5% DMSO, and 5.6 mM MgCl2. One may use the following separation conditions for a Caliper LC3000: −1.0 PSI, −2000 V upstream voltage, −400 V downstream voltage, 0.2 second sample sip, 45 second post sip, 10% laser strength.
The table 1 below provides the percent inhibition of PIM1 at 0.3 micromolar for Examples provided herein. Several examples were tested more than once. Variations in the experimental outcomes, negative values, or values over 100% inhibition are presumably due to experimental error inherent in the assay.

human His-PIM2 [23-299] = biological target: T2, human His-PIM2 [23-299] (Homo sapiens, UniProt Q9P1W9); assay: PIM2 in-vitro mobility shift assay (Caliper LC3000, FL-Ahx-Bad phosphorylation); assay type: biochemical; details: 1.5 h; percent inhibition at 0.3 uM compound; read-out: PIM2 % I at 0.3 uM
T2 construct: purified human His-PIM2 [23-299] enzyme; His (N); host or cells: E. coli
T2 sequence (Q9P1W9 23-299): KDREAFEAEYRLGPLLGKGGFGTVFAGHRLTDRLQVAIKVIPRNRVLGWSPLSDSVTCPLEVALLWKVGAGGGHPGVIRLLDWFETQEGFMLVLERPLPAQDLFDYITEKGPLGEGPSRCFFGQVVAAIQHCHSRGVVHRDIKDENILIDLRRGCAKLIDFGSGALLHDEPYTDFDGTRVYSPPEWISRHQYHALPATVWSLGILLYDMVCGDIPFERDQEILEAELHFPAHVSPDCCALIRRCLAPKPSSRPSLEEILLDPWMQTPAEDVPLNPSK
Source text: PIM2 In-Vitro Mobility Shift Assay
as §1, with “His-PIM2 [23-299]” for “His-PIM1 [2-313]”, “PIM2 (produced at AstraZeneca, R&D Boston)” for “PIM1 (University of Dundee, Scotland)”, “E. coli cells” for “baculovirus system”, “>90%” for “>85%”
as §2, with “5 uL” for “5 µl”, “and 12” for “and 240”, “5 uL” for “5 ul”, “and incubates” for “and incubated”, “90 minutes. One” for “90 minutes and”, “stops” for “stops the”

Structure (SMILES) | inhibition at 0.3 µM (human His-PIM1 [2-313]) [%] | inhibition at 0.3 µM (human His-PIM2 [23-299]) [%]
CN(C)[C@H]1CCN(c2c(Br)cccc2/C=C2\SC(=O)NC2=O)C1 [Example 33, (S,Z)-5-(3-bromo-2-(3-(dimethylamino)pyrrolidin-1-yl)benzylidene)thiazolidine-2,4-dione hydrochloride] | > 95 | > 95
C[C@@H]1CN(c2ccc(C(F)(F)F)cc2/C=C2\SC(=O)NC2=O)C[C@H](C)N1 [Example 34, (Z)-5-(2-((3S,5R)-3,5-dimethylpiperazin-1-yl)-5-(trifluoromethyl)benzylidene)thiazolidine-2,4-dione hydrochloride] | > 95 | 39.3
COc1cccc(/C=C2\SC(=O)NC2=O)c1N1C[C@@H](C)N[C@@H](C)C1 [Example 35, (Z)-5-(2-((3S,5R)-3,5-dimethylpiperazin-1-yl)-3-methoxybenzylidene)thiazolidine-2,4-dione] | < 5 | < 5
COc1cccc(/C=C2\SC(=O)NC2=O)c1N1CC[C@H](N(C)C)C1 [Example 36, (S,Z)-5-(2-(3-(dimethylamino)pyrrolidin-1-yl)-3-methoxybenzylidene)thiazolidine-2,4-dione] | > 95 | > 95
C[C@@H]1CN(c2c(Cl)cccc2/C=C2\SC(=O)NC2=O)C[C@H](C)N1 [Example 37, (Z)-5-(3-chloro-2-((3S,5R)-3,5-dimethylpiperazin-1-yl)benzylidene)thiazolidine-2,4-dione] | 89.7 | 69.4
CN(C)[C@H]1CCN(c2c(Cl)cccc2/C=C2\SC(=O)NC2=O)C1 [Example 38, (S,Z)-5-(3-chloro-2-(3-(dimethylamino)pyrrolidin-1-yl)benzylidene)thiazolidine-2,4-dione] | > 95 | 92.9
COc1cc(/C=C2\SC(=O)NC2=O)c(N2CC[C@@H](N(C)C)C2)cc1OC [Example 39, (R,Z)-5-(2-(3-(dimethylamino)pyrrrolidin-1-yl)-4,5-dimethoxybenzylidene)thiazolidine-2,4-dione] | 89.4 | 57.3
COc1cc(/C=C2\SC(=O)NC2=O)c(N2CC[C@H](N(C)C)C2)cc1OC [Example 40, (S,Z)-5-(2-(3-(dimethylamino)pyrrolidin-1-yl)-4,5-dimethoxybenzylidene)thiazolidine-2,4-dione] | > 95 | 89.8
COc1cc(/C=C2\SC(=O)NC2=O)c(N2CCC(CO)CC2)cc1OC [Example 41, (5Z)-5-{2-[4-(hydroxymethyl)piperidin-1-yl]-4,5-dimethoxybenzylidene}-1-,3-thiazolidine-2,4-dione] | 74 | 25.1
COc1cc(/C=C2\SC(=O)NC2=O)c(N2CCC(O)CC2)cc1OC [Example 42, (5Z)-5-[2-(4-hydroxypiperidine-1-yl)-4,5-dimethoxybenzylidene]-1,3-thiazolidine-2,4-dione] | 58.8 | 23.3
COc1ccc(N2CCC(N(C)C)C2)c(/C=C2\SC(=O)NC2=O)c1 (stereo not drawn) [Example 43, (5Z)-5-{2-[3-(dimethylamino)pyrrolidin-1-yl]-5-methoxybenzylidene}-1,3-thiazolidine-2,4-dione] | 55.4 | 14.7
COc1ccc(N2CCC(N(C)C)CC2)c(/C=C2\SC(=O)NC2=O)c1 [Example 44, (5Z)-5-{2-[4-(dimethylamino)piperidin-1-yl]-5-methoxybenzylidene}-1,3-thiazolidine-2,4-dione] | 83.8 | 46.7
COc1cc(/C=C2\SC(=O)NC2=O)c(N2CCC(O)C2)cc1OC (stereo not drawn) [Example 45, (5Z)-5-[2-(3-hydroxypyrrolidin-1-yl)-4,5-dimethoxybenzylidene]-1,3-thiazolidine-2,4-dione] | 40.1 | 14.3
COc1cc(/C=C2\SC(=O)NC2=O)c(N2CCCC2)cc1OC [Example 46, (5Z)-5-(4,5-dimethoxy-2-pyrrolidin-1-ylbenzylidene)-1,3-thiazolidine-2,4-dione] | 13.4 | 15.7
CN(C)CCN(C)c1ccccc1/C=C1\SC(=O)NC1=O [Example 47, (5Z)-5-{2-[[2-(dimethylamino)ethyl](methyl)amino]benzylidene}-1,3-thiazolidine-2,4-dione] | 50 | 26.3
CN(C)C1CCN(c2ccccc2/C=C2\SC(=O)NC2=O)C1 (stereo not drawn) [Example 48, (5Z)-5-{2-[3-(dimethylamino)pyrrolidin-1-yl]benzylidene}-1,3-thiazolidine-2,4-dione] | 84.4 | 41.3
CN(C)C1CCN(c2ccccc2/C=C2\SC(=O)NC2=O)CC1 [Example 49, (5Z)-5-{2-[4-(dimethylamino)piperidin-1-yl]benzylidene}-1,3-thiazolidine-2,4-dione] | > 95 | 86.3
CC(C)N1CCN(c2ccccc2/C=C2\SC(=O)NC2=O)CC1 [Example 50, (5Z)-5-[2-(4-isopropylpiperazin-1-yl)benzylidene]-1,3-thiazolidine-2,4-dione] | 93.7 | 45.4
COc1cc(/C=C2\SC(=O)NC2=O)c(N(C)CCN(C)C)cc1OC [Example 51, (5Z)-5-{2-[[2-(dimethylamino)ethyl](methyl)amino]-4,5-dimethoxybenzylidene}-1,3-thiazolidine-2,4-dione] | 85.5 | 80.6
COc1cc(/C=C2\SC(=O)NC2=O)c(N2CCC(N(C)C)C2)cc1OC (stereo not drawn) [Example 52, (5Z)-5-{2-[4-(dimethylamino)pyrrolidin-1-yl]-4,5-dimethoxybenzylidene}-1,3-thiazolidine-2,4-dione] | > 95 | 93.5
COc1cc(/C=C2\SC(=O)NC2=O)c(N2CCN(C(C)C)CC2)cc1OC [Example 53, (5Z)-5-{2-(4-isopropylpiperazin-1-yl)-4,5-dimethoxybenzylidene}-thiazolidine-2,4-dione] | 92.3 | 82.1
COc1cc(/C=C2\SC(=O)NC2=O)c(N2CCC(N(C)C)CC2)cc1OC [Example 54, (5Z)-5-{2-(4-(dimethylamino)piperidin-1-yl)-4,5-dimethoxybenzylidene}-thiazolidine-2,4-dione] | 88.1 | 73.1
CC(C)(C)OC(=O)N1CCN(c2ccc(C(F)(F)F)cc2/C=C2\SC(=O)NC2=O)CC1 [Example 55, (Z)-tert-butyl 4-(2-((2,4-dioxothiazolidin-5-ylidene)methyl)-4-(trifluoromethyl)phenyl)piperazine-1-carboxylate] | 11 | < 5
CN(C)C1CCN(c2ccc([N+](=O)[O-])cc2/C=C2\SC(=O)NC2=O)C1 (stereo not drawn) [Example 56, (Z)-5-(2-(3-(dimethylamino)pyrrolidin-1-yl)-5-nitrobenzylidene)thiazolidine-2,4-dione hydrochloride] | 90.7 | 33.5
